# Assay results from US9701690B2, “Myrtocomuloacetalone 1 as an anti-inflammatory agent” (priority 2014, dated 2017).
# Where two headings read alike, the source gives them in different places.
# Legend:
# superoxide (O−2) = experiment: Oxidative burst, superoxide production; assay type: cell-based; conditions: for Oxidative burst % Inhibition O−2: 25 μg/Ml
# ROS (HOCl) = experiment: Oxidative burst, ROS (HOCl) production (zymosan induced); assay type: cell-based
# T-cells = experiment: T-cell proliferation; assay type: cell-based
# Description: T Lymphocytes, the major key detector cells of the adaptive immune responses, differ entirely from those of innate immunity that includes free a radical generation system. However, the effector pathways overlap to a great extent. Therefore, they can play a leading role in the development of autoimmune disease related to oxidative stress.
# [1] = tested on: 3T3 mouse fibroblast cells; experiment: MTT assay, 3T3 fibroblast cell proliferation; assay type: cell-based; conditions: 48 hours
# Experimental: FIG. 7 depicts the effect of myrtocomuloacetalone 1 on 3T3 mouse fibrobast cell proliferation by MTT assay. Fibrobast cell line was incubated in the presence of three concentrations (25, 5 and 0.5 μg/mL) of test compounds or without addition of compounds (−ye control) and in presence of cytotoxic drug cyclohexamide (+ control).
# (§1) The effect of myrtocomuloacetalone 1 on cell viability was determined in MDBK, CC1, J774 and 3T3 Fibrobast cells and the IC50 for each line was calculated.
# CC1 liver cells = experiment: MTT assay, CC1 liver cell proliferation; assay type: cell-based, Wistar rat; conditions: 48 hours
# Experimental: FIG. 6 depicts the effect of myrtocomuloacetalone 1 on Wistar rat CC1 liver cell proliferation by MTT assay. CC1 liver cellline was incubated in the presence of three concentrations 25, 5 and 0.5 μg/mL of test compounds or without addition of compounds (−ve control) and in the presence of cytotoxic drug cyclohexamide (+ control).
# as §1
# MDBK kidney cells = experiment: MTT assay, MDBK kidney cell proliferation; assay type: cell-based; conditions: 48 hours
# Experimental: FIG. 5 depicts the effect of myrtocomuloacetalone 1 on MDBK kidney cell proliferation by MTT assay. MDBK Kidney cell line was incubated in the presence of three concentrations 25, 5 and 0.5 μg/mL of test compounds or without addition of compounds (− test control) and in presence of cytotoxic drug cyclohexamide (+ control).
# as §1
# J774.2 macrophages = experiment: MTT assay, J774.2 macrophage cell proliferation; assay type: cell-based, mouse; conditions: 48 hours
# Experimental: FIG. 8 depicts the effect of myrtocomuloacetalone 1 on J774.2 mouse macrophage cell proliferation by MIT assay. Macrophage cell line was incubated in the presence of three concentrations (25, 5 and 0.5 μg/mL) of test compounds or without addition of compounds (−ve control).
# as §1
# [2] = tested on: NF kappa B p65 in J774 cells; experiment: LPS induced nuclear translocation of p65 subunit of NF kappa B; assay type: cell-based, mouse
# Experimental: FIG. 3 depicts the LPS induced nuclear translocation of p65 subunit of NF kappa B in J774 cells. Effect of myrtocomuloacetalone 1 at concentration 25 μg/mL. Arrows show no transcription factor inside nucleus at 25 μg/mL, whereas 5, 0.5 μg/mL has no effect on nuclear factor translocation as compared to positive control. The cells were examined at 20× magnification under TRITC and DAPI channel using a Nikon TE-2000 epifluorescence microscope. Merging was done using Adobe Photoshop.
# [3] = tested on: basal Nitric Oxide, U138MG cells; experiment: Basal level of Nitric Oxide in neuronal cells (griess reagent); assay type: cell-based; conditions: 48 hours
# Experimental: FIG. 1 depicts the effect of myrtocomuloacetalone 1 on basal level of Nitric Oxide neuronal cells. U138MG cells were incubated in presence and absence of compound for 48 hours and supernatant was analyzed for the level of the presence of nitrite by griess reagent.
# Under normal physiological conditions, Nitric Oxide is necessary for normal vascular function because of its effect as a neurotransmitter. This kind of Nitric Oxide is called a basal level of Nitric Oxide, which is released by neuronal and endothelial synthases (Hattori, Kasai, and Gross 2004). The test compound […] in the basal level of Nitric Oxide released by the neuronal cell (FIG. 1).
# [4] = tested on: intracellular ROS in J774.2 cells; experiment: Intracellular oxidative stress, DCFH dye, fluorescent microscopy; assay type: cell-based, mouse; conditions: PMA stimulant
# Description: FIG. 4 depicts the intracellular oxidative stress examined by fluorescent microscopy. Mouse macrophage J774.2 cells, treated with phorbol myristate acetate (PMA) alone: positive control or in combination with compound. The cells were examined at 20× magnification under a green channel. Bright field images showing the total number of cells present in the same field were obtained under phase contrast at 20× magnification. Each image is representative of 3 individual experiments.
# In order to validate the above mentioned results, we also investigated the effect of compound on intracellular ROS levels by using 2′,7′-dichlorfluorescein (DCFH) dye, which mainly measures the H2O2 released into the intracellular environment. We employed PMA as a stimulant since PMA is known to activate the NADPH oxidase via protein kinase C pathway.
# [5] = tested on: Nitric Oxide release by J774.2 macrophages; experiment: LPS-induced inflammatory Nitric Oxide release by macrophages (griess reagent); assay type: cell-based, mouse; conditions: J774.2, LPS, 48 hours
# Experimental: FIG. 2 depicts the effect of myrtocomuloacetalone 1 on inflammatory Nitric Oxide release by macrophages in response to LPS, macrophages. J774.2 cells were incubated in the presence or absence of compound for 48 hours and supernatant was detected for the presence of nitrite by griess reagent. The result was compared with known inhibitor of Nitric Oxide; LNMA (NG Monomethyl L arginine).
# During inflammation, the inducible form of nitric oxide synthase gets activated and causes the robust generation of Nitric Oxide that causes excessive vasodilation which results in hypotension and septic shock. In contrast, Nitric Oxide combined with superoxide (ROS generated during phagocytosis) leads to ONOO generation and eventually reduces the bioavailability of basal Nitric Oxide and therefore normal function of neurotransition will be halted. This effect mainly leads to vasoconstriction, hypertension and atherosclerosis. Current studies reveal that the compound is an inhibitor to the inflammatory Nitric Oxide released by the activated macrophages in cell culture supernatant. It is found to be a highly significant inhibitor Nitric Oxide with an IC50 value of <1 μg/mL (see FIG. 2).
# p38 = experiment: LPS activated transcription factor p38; assay type: cell-based
# H2O2 = experiment: Oxidative burst, hydrogen peroxide production; assay type: cell-based
molecule,measurement,setting,value
"c1ccc([I+]c2ccccc2)cc1 [Diphenyliodonium, reference compound]",Oxidative burst % Inhibition O−2,superoxide (O−2),95%
"CC(C)Cc1ccc(C(C)C(=O)O)cc1 (stereo not shown) [Ibuprofen, reference compound]",IC50,ROS (HOCl); oxidative burst,11.7 ± 1.8 µg/mL
"C[C@]12C=CC(=O)C=C1CC[C@@H]1[C@@H]2[C@@H](O)C[C@@]2(C)[C@H]1CC[C@]2(O)C(=O)CO [Prednisolone, reference compound]",IC50,T-cells; T-cell,< 0.625 µg/mL
"C[C@@H]1C[C@@H]([C@H](O)CC2CC(=O)NC(=O)C2)C(=O)[C@@H](C)C1 [cycoxehamide, reference compound]","Cell viability IC50, 3T3 mouse fibroblasts",[1],0.13 µg/mL
same,"Cell viability IC50, CC1 liver cells",CC1 liver cells,0.02 ± 0.001 µg/mL
same,"Cell viability IC50, MDBK kidney cells",MDBK kidney cells,1.2 ± 0.4 µg/mL
myrtocomuloacetalone 1 [Myrtocomuloacetalone (1)],"Cell viability IC50, J774.2 macrophages",J774.2 macrophages,5 ± 0.8 µg/mL
same,Nuclear translocation of NF κB,[2]; 25 μg/mL,completely inhibits
same,Nuclear translocation of NF κB,"[2]; 5, 0.5 μg/mL",no effect
same,Effect on basal level of Nitric Oxide released by neuronal cell,[3],does change
same,Oxidative burst % Inhibition O−2,superoxide (O−2),42.5%
same,Effect on superoxide production,superoxide (O−2); oxidative burst,profound effect
same,PMA induced intracellular ROS generation,[4],inhibitory effects
same,"Inhibition of inflammatory Nitric Oxide released by activated macrophages, IC50",[5],< 1 µg/mL
same,Effect on transcription factor p38 activated by LPS,p38,remain unaffected
same,"Cell viability IC50, 3T3 mouse fibroblasts",[1],6.53 ± 1.2 µg/mL
same,Effect on HOCl production,ROS (HOCl); oxidative burst,no effect
same,ROS (HOCl) (IC50),ROS (HOCl); oxidative burst,>100 µg/mL
same,Zymosan induced ROS production of mainly HOCl,ROS (HOCl); zymosan induced,not
same,T-Cell proliferation (IC50),T-cells,<0.5 µg/mL
same,T-Cell proliferation (IC50),T-cells; listed as myrtocomuloacetalone 1,< 0.5 µg/mL
same,Oxidative burst % Inhibition H2O2,H2O2; 25 μg/Ml,53%
same,Effect on hydrogen peroxide production,H2O2; oxidative burst,profound effect
same,"Cell viability IC50, CC1 liver cells",CC1 liver cells,4.6 ± 0.7 µg/mL
same,"Cell viability IC50, MDBK kidney cells",MDBK kidney cells,4.5 ± 1.1 µg/mL
